This note sets out measurements from ChEMBL document CHEMBL2176908, “Structure-aided design of novel inhibitors of HIV protease based on a benzodiazepine scaffold” (J Med Chem, 2012).

Activity calls are given as the source filed them. The rule behind the calls is not given here.

For experiment [1], the target named is T1, Protease (Human immunodeficiency virus 1, UniProt Q9YQ12). Briefly: Inhibition of HIV1 protease by spectrophotometric assay.
The target in experiment [2] is T1, Protease. The experiment is described as follows: Inhibition of HIV1 protease by double-reciprocal Lineweaver-Burk plot. Particulars: read-out: Ki(app).
A further experiment has as its target T2, Papain (Carica papaya) (UniProt P00784).
T2 sequence (whole entry): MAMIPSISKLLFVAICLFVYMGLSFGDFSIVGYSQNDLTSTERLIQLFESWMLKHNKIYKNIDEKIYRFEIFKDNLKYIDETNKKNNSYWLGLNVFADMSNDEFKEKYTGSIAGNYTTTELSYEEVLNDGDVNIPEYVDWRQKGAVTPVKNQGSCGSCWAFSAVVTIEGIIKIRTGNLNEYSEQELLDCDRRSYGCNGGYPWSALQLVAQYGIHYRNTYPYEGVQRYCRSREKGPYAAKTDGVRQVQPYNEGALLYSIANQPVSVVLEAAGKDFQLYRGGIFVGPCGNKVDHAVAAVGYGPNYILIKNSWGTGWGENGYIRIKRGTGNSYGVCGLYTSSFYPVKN
The experiment is described as follows: Inhibition of papaya papain by spectrofluorometry.

The target in experiment [3] is Cathepsin D (Homo sapiens) (UniProt P07339). The experiment is described as follows: Inhibition of human cathepsin D spectrofluorometry.
Chain of Cathepsin D (Homo sapiens) (P07339 65-162 limits assumed): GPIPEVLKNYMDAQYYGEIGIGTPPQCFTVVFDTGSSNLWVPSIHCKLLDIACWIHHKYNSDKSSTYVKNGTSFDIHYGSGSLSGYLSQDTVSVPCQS
Chain of Cathepsin D (Homo sapiens) (P07339 169-412 limits assumed): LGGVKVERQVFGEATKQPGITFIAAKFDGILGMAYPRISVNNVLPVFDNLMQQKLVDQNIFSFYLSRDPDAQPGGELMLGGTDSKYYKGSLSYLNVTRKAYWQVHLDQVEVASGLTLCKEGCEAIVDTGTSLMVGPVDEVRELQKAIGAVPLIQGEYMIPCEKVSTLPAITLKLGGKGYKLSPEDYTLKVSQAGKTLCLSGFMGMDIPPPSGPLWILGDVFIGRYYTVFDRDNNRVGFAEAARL

T1 sequence (Q9YQ12 whole entry): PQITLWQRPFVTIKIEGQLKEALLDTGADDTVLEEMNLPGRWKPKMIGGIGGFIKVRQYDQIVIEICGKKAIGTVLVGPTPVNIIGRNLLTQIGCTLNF

Consider `CC1(C)CC(=O)C2=C(C1)Nc1ccccc1N(C(=O)C(=O)N1c3ccccc3NC3=C(C(=O)CC(C)(C)C3)[C@H]1c1ccccc1)[C@H]2c1ccccc1`, for which the IC50 on Protease [1] is over 1000 nM. At Protease [2], the Ki was at most 12 nM. The corresponding values for `CC1(C)CC(=O)C2=C(C1)Nc1ccccc1N(C(=O)C(=O)N1c3ccccc3NC3=C(C(=O)CC(C)(C)C3)C1c1ccccc1)C2c1ccccc1` (mixture of isomers; 5) are 30 nM and at most 12 nM. On the same counts, the results for `O=C1CC(c2ccccc2)CC2=C1C(c1ccccc1)N(C(=O)C(=O)N1c3ccccc3NC3=C(C(=O)CC(c4ccccc4)C3)C1c1ccccc1)c1ccccc1N2` (mixture of isomers) are 60 nM and at most 12 nM. As for `CC1(C)CC(=O)C2=C(C1)Nc1ccccc1N(C(=O)C(=O)N1CC3=C(CC(C)(C)CC3=O)Nc3ccccc31)C2`, at Protease [1], the IC50 turned out to be 200 nM. For the same compound, the Ki at Protease [2] is at most 12 nM.

Take `COc1cc([C@@H]2Nc3ccccc3NC3=C2C(=O)C[C@@H](c2ccccc2)C3)cc(Cl)c1O` (mixture of isomers): the IC50 on Protease [1] came to 4300 nM. In addition, the Ki at Protease [2] was at most 12 nM.

`O=C1CC(c2ccccc2)CC2=C1C(c1ccccc1)Nc1ccccc1N2` (mixture of isomers) came in with an IC50 against Protease [1] of 20000 nM. For the same compound, the Ki on Protease [2] was at most 12 nM. The compound `CC1(C)CC(=O)C2=C(C1)Nc1ccccc1N(C(=O)C(=O)N1c3ccccc3NC3=C(C(=O)CC(C)(C)C3)C1c1ccccc1)C2c1ccccc1` (mixture of isomers; 5a) [listing 1 of 2 here] registered an IC50 on Protease [1] of 30 nM.

For the compound `CC1(C)CC(=O)C2=C(C1)Nc1ccccc1NC2c1ccccc1` (racemic), the IC50 against Protease [1] came to 110000 nM. In addition, the Ki at Protease [2] is at most 12 nM.

The compound `CC1(C)CC(=O)C2=C(C1)Nc1ccccc1N(C(=O)C(=O)N1c3ccccc3NC3=C(C(=O)CC(C)(C)C3)C1c1ccccc1)C2` (racemic) returned an IC50 on Protease [1] of 100 nM. The Ki on Protease [2] was at most 12 nM. Take `CC1(C)CC(=O)C2=C(C1)Nc1ccccc1N(C(=O)C(=O)N1c3ccccc3NC3=C(C(=O)CC(C)(C)C3)C1c1ccccc1)C2c1ccccc1` (mixture of isomers; 5a) [listing 2 of 2 here]: the inhibition entry (on Papain (Carica papaya); in experiment [3]) was “inactive” in each case. In turn, `CC1(C)CC(=O)C2=C(C1)Nc1ccccc1N(C(=O)C(F)(F)C(=O)N1c3ccccc3NC3=C(C(=O)CC(C)(C)C3)C1c1ccccc1)C2c1ccccc1` (mixture of isomers) returned an IC50 on Protease [1] of 300 nM. Moreover, on Protease [2], the Ki was at most 12 nM.

Usually IC50 stands for the concentration that inhibits the measured activity by half. The low end stands for inhibition by little substance, the high end for a need for much substance.
